Test results published in patent US20210002231A1 (Centre National de la Recherche Scientifique, priority 2018, published 2021).
Like-named read-outs stand apart in the source and are kept apart here. Residues, ends and D or L forms follow the SMILES beside them.

Legend:
human KOPr [1] = target: T1, human KOPr (Homo sapiens, UniProt P41145); test: biochemical; assay type: binding; settings: [3H]-diprenorphine
T1 construct: expressed in transfected cells; HEK293-Glo20F cells (cAMP)

human DOPr [2] = target: T2, human DOPr (Homo sapiens, UniProt P41143); test: biochemical; assay type: binding
T2 construct: expressed in transfected cells; HEK293-Glo20F cells (cAMP)

human NPFF1R = human NPFF1R (Homo sapiens, UniProt Q9GZQ6); test: [35S]-GTPγS binding assay; assay type: biochemical; set-up: expressed in transfected cells; settings: for Emax: relative to RFRP3
Procedure: (§1) Stimulation by endogenous RF-amide peptides or test compounds for [^35S]-GTPγS binding to membranes from CHO cells expressing human NPFF1R or NPFF2R, were examined as reported. 1.6. Glo-Sensor cAMP Assay cAMP accumulation assay was essentially done as described with the following modifications: HEK293 cells stably expressing cAMP Glosensor-20F were used, with or without additional stable expression of each individual opioid receptor or NPFF1R. The cAMP responses were measured in presence of D-luciferin (1 mM).

NPFF2R = NPFF2R (Homo sapiens, UniProt Q9Y5X5); test: [35S]-GTPγS binding assay; assay type: biochemical; set-up: expressed in transfected cells;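 as to Emax: Emax relative to NPFF as 100%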
Procedure: as §1

GPR103 = target: T3, GPR103 (Homo sapiens, UniProt Q96P65); test: Radioligand competition binding with [125I]-43RFa
T3 construct: expressed in transfected cells; host or cells: CHO cells (gift from M. Parmentier, IRIBHM, Brussels), membranes
T3 sequence (Q96P65 1-431): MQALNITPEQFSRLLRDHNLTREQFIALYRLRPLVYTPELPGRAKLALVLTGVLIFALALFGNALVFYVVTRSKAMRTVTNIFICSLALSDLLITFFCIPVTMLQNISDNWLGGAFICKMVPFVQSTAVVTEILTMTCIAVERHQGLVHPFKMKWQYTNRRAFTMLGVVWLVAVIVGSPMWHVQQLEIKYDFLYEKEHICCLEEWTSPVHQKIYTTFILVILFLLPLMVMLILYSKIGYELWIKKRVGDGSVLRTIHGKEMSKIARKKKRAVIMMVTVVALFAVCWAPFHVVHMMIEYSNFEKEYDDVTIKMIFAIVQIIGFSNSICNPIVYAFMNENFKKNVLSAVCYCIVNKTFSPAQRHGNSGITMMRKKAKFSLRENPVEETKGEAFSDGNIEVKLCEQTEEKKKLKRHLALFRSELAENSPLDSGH

GPR54 = target: T4, GPR54 (Homo sapiens, UniProt Q969F8); test: Radioligand competition binding with [125I]-Kp-10
T4 construct: expressed in transfected cells; host or cells: CHO cells, membranes

human MOPr = human MOPr (Homo sapiens, UniProt P35372); test: Radioligand competition binding with [3H]-diprenorphine; set-up: expressed in transfected cells; HEK293-Glo20F cells (cAMP)
human NOPr [3] = target: T5, human NOPr (Homo sapiens, UniProt P41146); test: Radioligand competition binding with [3H]-nociceptin
T5 construct: expressed in transfected cells

human NOPr [4] = target: T5, human NOPr; test: Glo-sensor cAMP assay; assay type: cell-based
Procedure: as §1

human KOPr [5] = target: T1, human KOPr; test: Glo-sensor cAMP assay; assay type: cell-based
Procedure: as §1

human DOPr [6] = target: T2, human DOPr; test: Glo-sensor cAMP assay; assay type: cell-based
Procedure: as §1, with “mM). All peptides and test compounds were incubated in the presence of IBMX for 15 min before inducing cAMP production by forskolin. IBMX and forskolin concentrations were optimized for each receptor cell line: NPFF1R responses were recorded in presence of 0.1 mM IBMX and 0.4 μM forskolin, NPFF2R responses with 0.5 mM IBMX and 0.3 μM forskolin, MOPr responses with 0.5 mM IBMX and 0.125 μM forskolin, DOPr responses with 0.1 mM IBMX and 0.125 μM forskolin; KOPr and NOPr with 0.5 mM IBMX and 1.5 μM forskolin.” for “mM).”

C57BL/6N mice = test: Tail immersion test after acute sc. administration; assay type: in vivo
Procedure: Animal experiments were performed on adult male C57BL/6N male mice (25-30 g weight; Janvier labs, France). Animals were housed in groups of three to five per cage and kept under a 12 h/12 h light/dark cycle at 21±1° C. with ad libitum access to food and water. Experiments were performed during the light-on phase of the cycle. Mice were habituated to the testing room and equipment before starting behavioral experiments. Control and treated group assignment as well as pain response measurements were performed in a blinded manner. Every animal was used only once. 1.11. Drug administration All drugs were dissolved in physiological saline (0.9%) and administered subcutaneously (sc.) at 10 mL/kg (volume/body weight). […] Assessment of thermal nociception The nociceptive sensitivity to thermal stimulation was determined in mice using the warm-water tail immersion tests as previously described [12; 49]. In the tail immersion test, C57BN/6N mice were restrained in a grid pocket and their tail was immersed in a thermostated water bath. […] For analgesic tolerance evaluation, nociceptive latencies were measured on day 1 and 8 according to the acute effect protocol. For the assessment of hyperalgesia, basal nociceptive latencies were measured every day, 30 min before drug or saline injection. Responses are expressed as latency times (in sec) of tail withdrawal from the hot water.

[7] = [125I]-43RFa, read-out: Ki ± SEM GPR103
[8] = [125I]-Kp-10, read-out: Ki ± SEM GPR54

T1 sequence (P41145 whole entry): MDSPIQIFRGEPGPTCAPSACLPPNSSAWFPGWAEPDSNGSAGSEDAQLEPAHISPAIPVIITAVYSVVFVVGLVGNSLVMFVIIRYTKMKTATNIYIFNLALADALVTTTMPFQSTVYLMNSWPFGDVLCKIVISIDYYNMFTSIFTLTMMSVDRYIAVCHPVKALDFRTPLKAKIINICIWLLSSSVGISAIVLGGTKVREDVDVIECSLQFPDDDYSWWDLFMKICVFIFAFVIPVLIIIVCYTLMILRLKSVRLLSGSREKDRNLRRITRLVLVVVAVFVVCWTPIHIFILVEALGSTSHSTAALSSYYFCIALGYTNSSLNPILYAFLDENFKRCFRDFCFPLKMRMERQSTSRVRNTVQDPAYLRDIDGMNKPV
Sequence of NPFF2R (Q9Y5X5 whole entry): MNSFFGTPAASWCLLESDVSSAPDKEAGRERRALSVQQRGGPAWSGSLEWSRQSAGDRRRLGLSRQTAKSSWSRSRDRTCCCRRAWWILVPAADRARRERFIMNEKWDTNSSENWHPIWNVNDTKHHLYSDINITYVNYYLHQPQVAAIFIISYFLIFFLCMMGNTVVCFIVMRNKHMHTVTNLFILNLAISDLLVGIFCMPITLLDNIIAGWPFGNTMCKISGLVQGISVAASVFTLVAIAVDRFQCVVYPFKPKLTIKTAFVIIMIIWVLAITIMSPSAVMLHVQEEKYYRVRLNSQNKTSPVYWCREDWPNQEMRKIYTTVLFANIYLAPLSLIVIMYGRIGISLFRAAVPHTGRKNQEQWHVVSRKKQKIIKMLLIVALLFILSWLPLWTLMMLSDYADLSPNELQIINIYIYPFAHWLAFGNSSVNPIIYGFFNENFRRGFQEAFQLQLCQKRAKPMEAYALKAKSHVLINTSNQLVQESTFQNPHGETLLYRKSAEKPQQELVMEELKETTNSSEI
Sequence of human NPFF1R (Q9GZQ6 whole entry): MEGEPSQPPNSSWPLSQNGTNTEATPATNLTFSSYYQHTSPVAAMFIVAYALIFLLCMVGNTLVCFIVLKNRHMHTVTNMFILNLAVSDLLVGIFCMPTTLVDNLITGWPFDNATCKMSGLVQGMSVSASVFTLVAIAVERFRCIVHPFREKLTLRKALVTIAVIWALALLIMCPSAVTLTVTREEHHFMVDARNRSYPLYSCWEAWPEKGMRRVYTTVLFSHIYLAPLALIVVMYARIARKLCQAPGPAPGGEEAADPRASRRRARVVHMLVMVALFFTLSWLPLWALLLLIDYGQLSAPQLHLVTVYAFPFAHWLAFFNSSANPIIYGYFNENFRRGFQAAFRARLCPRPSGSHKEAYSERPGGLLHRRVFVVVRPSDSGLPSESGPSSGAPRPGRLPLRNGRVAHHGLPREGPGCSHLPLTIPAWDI
Sequence of human MOPr (P35372 whole entry): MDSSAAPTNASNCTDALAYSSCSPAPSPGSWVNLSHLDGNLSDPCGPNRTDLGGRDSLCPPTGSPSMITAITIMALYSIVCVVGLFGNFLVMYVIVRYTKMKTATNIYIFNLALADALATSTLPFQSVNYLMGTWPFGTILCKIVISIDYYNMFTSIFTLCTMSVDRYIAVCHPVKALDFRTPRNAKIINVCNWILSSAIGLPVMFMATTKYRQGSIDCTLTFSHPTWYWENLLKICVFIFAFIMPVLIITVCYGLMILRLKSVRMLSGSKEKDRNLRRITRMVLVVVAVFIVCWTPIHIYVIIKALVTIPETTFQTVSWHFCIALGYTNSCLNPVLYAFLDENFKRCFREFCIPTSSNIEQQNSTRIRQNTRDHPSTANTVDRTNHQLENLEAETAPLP
T5 sequence (P41146 whole entry): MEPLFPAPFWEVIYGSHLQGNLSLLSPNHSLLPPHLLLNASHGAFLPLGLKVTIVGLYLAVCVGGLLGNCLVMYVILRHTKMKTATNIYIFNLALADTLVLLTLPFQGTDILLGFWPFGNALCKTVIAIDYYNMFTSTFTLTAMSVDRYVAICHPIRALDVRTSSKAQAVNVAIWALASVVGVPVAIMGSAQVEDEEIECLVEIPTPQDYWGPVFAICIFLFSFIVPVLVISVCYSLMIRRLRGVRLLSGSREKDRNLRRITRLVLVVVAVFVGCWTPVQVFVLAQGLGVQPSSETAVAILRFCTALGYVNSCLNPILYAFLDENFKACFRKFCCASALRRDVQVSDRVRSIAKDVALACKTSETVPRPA
T4 sequence (Q969F8 whole entry): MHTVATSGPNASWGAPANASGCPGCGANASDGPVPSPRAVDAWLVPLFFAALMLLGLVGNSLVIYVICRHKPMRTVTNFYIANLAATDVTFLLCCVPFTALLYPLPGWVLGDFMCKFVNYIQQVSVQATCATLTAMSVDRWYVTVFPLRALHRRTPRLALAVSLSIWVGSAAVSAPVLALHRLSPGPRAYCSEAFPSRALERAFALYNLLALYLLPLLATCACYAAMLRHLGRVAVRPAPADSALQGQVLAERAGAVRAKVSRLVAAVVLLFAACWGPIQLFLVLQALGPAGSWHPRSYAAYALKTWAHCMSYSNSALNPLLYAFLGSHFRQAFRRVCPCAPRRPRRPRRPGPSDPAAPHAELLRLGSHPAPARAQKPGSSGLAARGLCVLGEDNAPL
T2 sequence (P41143 whole entry): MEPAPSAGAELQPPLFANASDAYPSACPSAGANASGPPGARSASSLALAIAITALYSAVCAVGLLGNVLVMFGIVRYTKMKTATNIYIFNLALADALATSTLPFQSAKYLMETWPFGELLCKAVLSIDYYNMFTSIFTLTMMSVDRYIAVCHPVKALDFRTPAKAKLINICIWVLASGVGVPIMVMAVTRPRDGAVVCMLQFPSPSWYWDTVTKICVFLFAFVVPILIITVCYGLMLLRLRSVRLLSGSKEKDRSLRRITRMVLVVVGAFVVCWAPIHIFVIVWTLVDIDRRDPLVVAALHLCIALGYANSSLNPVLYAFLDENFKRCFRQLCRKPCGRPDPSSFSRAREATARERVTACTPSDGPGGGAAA

| SMILES | Ki (human KOPr [1]) | Ki (human DOPr [2]) | Emax (human NPFF1R) | Emax (NPFF2R) | Ki (human MOPr) | Ki (human NOPr [3]) | Emax (human NOPr [4]) | Emax (human KOPr [5]) | EC50 (human DOPr [6]) | Emax (human DOPr [6]) | potency in inducing antinociception compared to KGOP01 (C57BL/6N mice) | Ki (GPR103; [7]) | Ki (GPR54; [8]) | other results |
| --- | --- | --- | --- | --- | --- | --- | --- | --- | --- | --- | --- | --- | --- | --- |
| Cc1cc(O)cc(C)c1C[C@H](N)C(=O)N[C@H](CCCNC(=N)N)C(=O)N[C@H]1Cc2ccccc2CN(CCC(=O)N[C@@H](CCCNC(=N)N)C(=O)N[C@@H](Cc2ccccc2)C(N)=O)C1=O [KGFF03, H-Dmt-D-Arg-Aba-β-Ala-Arg-Phe-NH2] (HELM PEPTIDE1{[Cc1cc(O)cc(C)c1C[C@H](N)C(=O)[*:2]].[dR].[O=C1[C@@H](N[*:1])Cc2ccccc2CN1CCC(=O)[*:2]].R.F.[am]}$$$$V2.0) | 108 ± 28 nM | 9.1 ± 0.7 nM | 88 ± 7% | 111 ± 17% | 0.24 ± 0.03 nM | 289 ± 3 nM | 15 ± 2% | 34 ± 11% | 0.34 nM | 89 ± 6% | equipotent | – | – | Ki (GPR103): > 10 µM; Ki (GPR54): 4.37 µM; Kb (human NOPr [4]): 5.01 µM; EC50 (human KOPr [5]): 95 nM |
| Cc1cc(O)cc(C)c1C[C@H](N)C(=O)N[C@H](CCCNC(=N)N)C(=O)N[C@H]1Cc2ccccc2CN(CCC(=O)N[C@@H](CCCN2CCC(Cc3ccccc3)CC2)C(=O)N[C@@H](Cc2ccccc2)C(N)=O)C1=O [KGFF09, H-Dmt-D-Arg-Aba-β-Ala-Bpa-Phe-NH2] | – | 186 ± 77 nM | 10 ± 2% | 38 ± 14% | 2.43 ± 0.18 nM | 209 ± 2 nM | 7 ± 3% | 15 ± 1% | 0.78 nM | 90 ± 3% | 4.5 fold less potent | 1.2 µM | 2 µM | EC50 (human NOPr [4]): > 10 µM; Kb (human NOPr [4]; read-out: pA2, antagonist activity at the NOPr (converted)): 1.15 µM |
| Cc1cc(O)cc(C)c1C[C@H](N)C(=O)N[C@H](CCCNC(=N)N)C(=O)N[C@H]1Cc2ccccc2CN(CCC(N)=O)C1=O [KGOP01, reference compound] | 37.3 ± 9.6 nM | 5.1 ± 0.5 nM | – | – | 0.12 ± 0.02 nM | > 10000 nM | – | 18 ± 1% | 0.16 ± 0.01 nM | 91 ± 2% | – | > 10 µM | > 10 µM | EC50 (human NPFF1R; membranes from CHO-hNPFF1R cells, read-out: NPFF1R (GTPγS) EC50): > 10 µM; EC50 (NPFF2R; membranes from CHO-hNPFF2R cells, read-out: NPFF2R (GTPγS) EC50): > 10 µM; EC50 (human KOPr [5]; read-out: KOPr (cAMP) EC50): > 10000 nM |
